{"source": "paper PMC9303275", "about": "“Direct adenylation from 5′-OH-terminated oligonucleotides by a fusion enzyme containing Pfu RNA ligase and T4 polynucleotide kinase” (Nucleic Acids Research, 2022)", "molecules": {"B1": {"name": "Pfu RNA ligase (enzyme, Pyrococcus furiosus, UniProt Q8U3V2 1-379, looked up)", "chain": "MVSSKFKELLYTLGIPEDKVEILEARGGIMEDEFEGIRYLRFKNSVGKLRRGTVLFEDGTTVFGFPHIKRIVNLSAGVRKIFKSSEFYVEEKVDGYNVRVVKFKDRILGITRGGFICPYTTERIAEFVPEEFFKDHKDLVLVGEMAGPESPYLVEGPPYVKEDIQFFLFDIQDIKTGSSLPVEERLKLAEEYGINHVEVFGRYSYKDIDDLYELIERLSREGREGIVMKSPDMKKIVKYVTPYANINDIKIGARVFYELPGGYFTSRISRLAFYIAEKKIRGEELHNLALQLGKALLQPLVEAIHDVTQGDVIAERFRVRVRKIETAYKMVTHFEKLGLEIEIEDIEEIEGGWRVTFKRVYPEATREIRDLIGGKAFVD", "notes": "Pfu RNA ligase (Pfu Rnl) of Pyrococcus furiosus, encoded by the PF0353 gene, 379 amino acids, full length; No tag removal is described; also called Pfu Rnl; Q8U3V2 protein; source: E. coli BL21(DE3), purified (HisTrap FF, HiTrap Heparin HP)"}}, "key": {"Pfu RNA ligase (Pfu Rnl)": {"biological_target": "T1, Pfu RNA ligase (Pfu Rnl) (Pyrococcus furiosus, UniProt Q8U3V2)", "T1 construct": "gene PF0353; full length, 379 aa, N-terminal 8xHis tag (not reported cut), codon optimised, pET28a, E. coli BL21(DE3), ~42 kDa, mainly homodimer", "T1 sequence (Q8U3V2 1-379)": "B1 chain", "assay": "oligonucleotide adenylation, denaturing urea-PAGE, SYBR Gold", "type": "biochemical"}, "Mth RNA ligase (Mth Rnl)": {"biological_target": "T2, Mth RNA ligase (Mth Rnl) (Methanothermobacter thermautotrophicus, UniProt O27289)", "T2 construct": "gene MTH_1221; commercial enzyme (New England Biolabs, 5' DNA adenylation kit)", "T2 sequence (O27289 1-381)": "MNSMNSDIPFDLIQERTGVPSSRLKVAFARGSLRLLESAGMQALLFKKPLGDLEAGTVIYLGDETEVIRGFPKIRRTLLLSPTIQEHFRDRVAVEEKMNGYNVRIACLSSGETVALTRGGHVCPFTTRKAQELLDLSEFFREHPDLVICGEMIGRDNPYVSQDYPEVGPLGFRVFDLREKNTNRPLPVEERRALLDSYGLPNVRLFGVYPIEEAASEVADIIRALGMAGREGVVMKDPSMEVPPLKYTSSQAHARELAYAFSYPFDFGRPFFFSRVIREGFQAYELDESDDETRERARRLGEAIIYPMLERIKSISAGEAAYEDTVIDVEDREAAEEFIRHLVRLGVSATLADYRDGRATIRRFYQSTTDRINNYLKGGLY", "assay": "oligonucleotide adenylation, denaturing urea-PAGE", "type": "biochemical", "conditions": "5'-phosphorylated 55-nt ssDNA; commercial kit protocol"}, "[1]": {"biological_target": "the molecule itself", "assay": "SEC; gel filtration on HiLoad 26/600 Superdex 200 pg, 50 mM phosphate, 150 mM NaCl, pH 7.0, 2.6 ml/min; elution volumes compared with molecular weight standards; each protein loaded separately"}}, "data": [{"molecule": "Nc1ncnc2c1ncn2[C@@H]1O[C@H](COP(=O)(O)OP(=O)(O)O)[C@@H](O)[C@H]1O", "note": "[ADP]", "values": [{"measurement": "oligonucleotide adenylation, denaturing urea-PAGE, SYBR Gold", "setting": "Pfu RNA ligase (Pfu Rnl); 5'-phosphorylated 17-nt and 55-nt ssDNA, 5 mM MgCl2, 70 mM Tris-HCl pH 7.0, 80 °C, weak activity", "result": "weak catalytic activity with ADP and almost no catalytic activity with AMP"}]}, {"molecule": "Nc1ncnc2c1ncn2[C@@H]1O[C@H](COP(=O)(O)OP(=O)(O)OP(=O)(O)O)[C@@H](O)[C@H]1O", "note": "[ATP]", "values": [{"measurement": "oligonucleotide adenylation, denaturing urea-PAGE, SYBR Gold", "setting": "Pfu RNA ligase (Pfu Rnl); 5'-phosphorylated ssDNA, 5 mM MgCl2, 70 mM Tris-HCl pH 7.0, 5 mM DTT, 80 °C, 30 min", "result": "Pfu Rnl showed the best activity with ATP as the adenosyl source"}, {"measurement": "oligonucleotide adenylation, denaturing urea-PAGE", "setting": "Mth RNA ligase (Mth Rnl)", "result": "As expected, both enzymes achieved near complete conversion"}]}, {"molecule": "B1", "values": [{"measurement": "stoichiometry N", "setting": "[1]", "result": 2}]}]}
